Test results published in US20220370453A1 (Storm Therapeutics Ltd, priority 2019, published 2022).
pIC50: −log10 of the molar value.

What was measured:
[1] = target: T1, BCDIN3D (Homo sapiens, UniProt Q7Z5W3); test: BCDIN3D IC50 RFMS (RapidFire) assay with mini-helix; assay type: biochemical; conditions: mini-helix substrate 0.2 μM, SAM 6 μM, 25 nM enzyme
T1 sequence (Q7Z5W3 1-292): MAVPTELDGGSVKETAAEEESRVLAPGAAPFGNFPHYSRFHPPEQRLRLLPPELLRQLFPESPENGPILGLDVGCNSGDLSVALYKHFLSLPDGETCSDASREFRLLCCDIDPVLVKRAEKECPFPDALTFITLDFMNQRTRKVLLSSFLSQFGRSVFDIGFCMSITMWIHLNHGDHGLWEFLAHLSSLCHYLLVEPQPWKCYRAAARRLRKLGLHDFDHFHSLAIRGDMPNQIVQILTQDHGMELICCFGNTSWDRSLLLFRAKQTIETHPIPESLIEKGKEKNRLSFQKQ
Procedure, shortened: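 25 nM enzyme preincubated 10 min at room temperature with compound (1% DMSO) in 25 mM Tris pH 8.0, 10 mM DTT, 1 mM EDTA, 0.03% BSA. Reaction started with 0.2 μM mini-helix plus 6 μM SAM, run 1 h at 37 °C, quenched with TCA; SAH product quantified by RapidFire MS against isotopic SAH standards.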

[2] = target: T1, BCDIN3D; test: BCDIN3D InCellPulse thermal stability assay in transfected A549 cells; assay type: cell-based; conditions: transiently transfected A549 cells, heat shock 58° C. 15 min
Procedure, shortened: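 A549 cells transiently expressing BCDIN3D N-terminally fused to ePL ProLabel tag, 1500 cells/well, pre-incubated 1 h at 37 °C with compound (0.6% DMSO). Heat shock 58 °C for 15 min; remaining soluble fusion detected by split β-galactosidase complementation luminescence.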

SMILES | pIC50 [1] | pIC50 [2]
Cn1ncc2c(Nc3ccc(C(F)(F)F)cc3)nc(NCC3(N)CCOC3)nc21 (stereo not drawn) [Compound 3.14, 6-N-[(3-aminooxolan-3-yl)methyl]-1-methyl-4-N-[4-(trifluoromethyl)phenyl]pyrazolo[3,4-d]pyrimidine-4,6-diamine] | 6.60 | 5.62
Cn1ncc2c(Nc3ccc(C(F)(F)F)nc3)nc(NCC3(N)CCOC3)nc21 (stereo not drawn) [Compound 3.15, N6-[(3-aminotetrahydrofuran-3-yl)methyl]-1-methyl-N4-[6-(trifluoromethyl)-3-pyridyl]pyrazolo[3,4-d]pyrimidine-4,6-diamine] | 5.79 | 5.18
Cn1ncc2c(Nc3ccc(C(F)(F)F)cc3)nc(NCC3COCCN3)nc21 (stereo not drawn) [Compound 3.16, 1-methyl-N6-[(morpholin-3-yl)methyl]-N4-[4-(trifluoromethyl)phenyl]-1H-pyrazolo[3,4-d]pyrimidine-4,6-diamine] | 5.00 | 4.22
Cn1ncc2c(Nc3ccc(C(F)(F)F)cc3)nc(NCC3(N)CCCC3)nc21 [Compound 3.18, 6-N-[(1-aminocyclopentyl)methyl]-1-methyl-4-N-[4-(trifluoromethyl)phenyl]pyrazolo[3,4-d]pyrimidine-4,6-diamine] | 7.06 | 6.47
Cn1ncc2c(Nc3ccc(C(F)(F)F)nc3)nc(NCC3(N)CCCC3)nc21 [Compound 3.19, 6-N-[(1-aminocyclopentyl)methyl]-1-methyl-4-N-[6-(trifluoromethyl)pyridin-3-yl]pyrazolo[3,4-d]pyrimidine-4,6-diamine] | 6.45 | 5.91
Cn1ncc2c(Nc3ccc(OC(F)F)cc3)nc(NCC3(N)CCCC3)nc21 [Compound 3.20, 6-N-[(1-aminocyclopentyl)methyl]-4-N-[4-(difluoromethoxy)phenyl]-1-methylpyrazolo[3,4-d]pyrimidine-4,6-diamine] | 6.52 | 6.14
Cn1ncc2c(Nc3ccccc3)nc(NCC3(N)CCCC3)nc21 [Compound 3.21, 6-N-[(1-aminocyclopentyl)methyl]-1-methyl-4-N-phenylpyrazolo[3,4-d]pyrimidine-4,6-diamine] | 5.84 | 5.70
Cn1ncc2c(Nc3ccc(C#N)cc3)nc(NCC3(N)CCCC3)nc21 [Compound 3.22, 4-[[6-[(1-aminocyclopentyl)methylamino]-1-methylpyrazolo[3,4-d]pyrimidin-4-yl]amino]benzonitrile] | 5.74 | 5.65
Cn1ncc2c(Nc3ccc(OC(F)(F)F)cc3)nc(NCC3(N)CCCC3)nc21 [Compound 3.23, 6-N-[(1-aminocyclopentyl)methyl]-1-methyl-4-N-[4-(trifluoromethoxy)phenyl]pyrazolo[3,4-d]pyrimidine-4,6-diamine] | 6.94 | 6.57
[2H]C([2H])([2H])n1ncc2c(Nc3ccc(C(F)(F)F)cc3)nc(NCC3(N)CCC3)nc21 [Compound 3.24, N6-[(1-aminocyclobutyl)methyl]-1-(trideuteriomethyl)-N4-[4-(trifluoromethyl)phenyl]pyrazolo[3,4-d]pyrimidine-4,6-diamine] | 7.35 | 6.32
Cc1ccc(CNc2nc(NCC(N)CF)nc3c2cnn3C)cc1Cl (stereo not drawn) [Compound 3.25, N6-(2-Amino-3-fluoropropyl)-N4-[(3-chloro-4-methylphenyl)methyl]-1-methyl-1H-pyrazolo[3,4-d]pyrimidine-4,6-diamine] | 5.21 | 5.26
Cn1ncc2c(Nc3ccc(C(F)(F)F)cc3)nc(NCC(N)CF)nc21 (stereo not drawn) [Compound 3.26, 6-N-(2-amino-3-fluoropropyl)-1-methyl-4-N-[4-(trifluoromethyl)phenyl]pyrazolo[3,4-d]pyrimidine-4,6-diamine] | 5.52 | 5.39
COCC(N)CNc1nc(NCc2ccc(C)c(Cl)c2)c2cnn(C)c2n1 (stereo not drawn) [Compound 3.27, 6-N-(2-amino-3-methoxypropyl)-4-N-[(3-chloro-4-methylphenyl)methyl]-1-methylpyrazolo[3,4-d]pyrimidine-4,6-diamine] | 5.37 | 5.32
Cn1ncc2c(Nc3ccc(C(F)(F)F)cc3)nc(NCC3(N)COC3)nc21 [Compound 3.28, 6-N-[(3-Aminooxetan-3-yl)methyl]-1-methyl-4-N-[4-(trifluoromethyl)phenyl]pyrazolo[3,4-d]pyrimidine-4,6-diamine] | 6.42 | 5.33
Cn1ncc2c(Nc3ccccc3)nc(NCC3(N)COC3)nc21 [Compound 3.29, 6-N-[(3-Aminooxetan-3-yl)methyl]-1-methyl-4-N-phenylpyrazolo[3,4-d]pyrimidine-4,6-diamine] | 5.31 | 4.22
Cc1ccc(CNc2nc(NC3CCCCC3N)nc3c2cnn3C)cc1Cl (stereo not drawn) [Compound 3.30, N6-(2-aminocyclohexyl)-N4-[(3-chloro-4-methylphenyl)methyl]-1-methyl-1H-pyrazolo[3,4-d]pyrimidine-4,6-diamine] | 5.94 | 5.85

Now from value to compound:

pIC50 [1] | pIC50 [2] | SMILES
6.49 | 5.71 | [2H]C([2H])([2H])n1ncc2c(NC(C)(C)C)nc(NCC(C)(N)c3ccccc3)nc21 (stereo not drawn) [Compound 4.01, N6-(2-Amino-2-phenyl-propyl)-N4-tert-butyl-1-(trideuteriomethyl)pyrazolo[3,4-d]pyrimidine-4,6-diamine]
5.37 | 5.25 | CCn1ncc2c(NC(C)C)nc(NCC(N)c3ccccc3)nc21 (stereo not drawn) [Compound 4.02, 6-N-(2-Amino-2-phenylethyl)-1-ethyl-4-N-propan-2-ylpyrazolo[3,4-d]pyrimidine-4,6-diamine]
7.20 | 6.78 | Cc1ccc(CNc2nc(NCC(N)c3ccccc3)nc3c2cnn3C)cc1Cl (stereo not drawn) [Compound 4.03, 6-N-(2-amino-2-phenylethyl)-4-N-[(3-chloro-4-methylphenyl)methyl]-1-methylpyrazolo[3,4-d]pyrimidine-4,6-diamine]
6.37 | 6.09 | Cn1ncc2c(NCc3ccc(F)cc3F)nc(NCC(N)c3ccccc3)nc21 (stereo not drawn) [Compound 4.04, 6-N-(2-amino-2-phenylethyl)-4-N-[(2,4-difluorophenyl)methyl]-1-methylpyrazolo[3,4-d]pyrimidine-4,6-diamine]
6.96 | 6.56 | Cn1ncc2c(NCc3ccc(F)c(Cl)c3)nc(NCC(N)c3ccccc3)nc21 (stereo not drawn) [Compound 4.05, 6-N-(2-amino-2-phenylethyl)-4-N-[(3-chloro-4-fluorophenyl)methyl]-1-methylpyrazolo[3,4-d]pyrimidine-4,6-diamine]
7.06 | 6.86 | Cn1ncc2c(NCc3cccc(Br)c3)nc(NCC(N)c3ccccc3)nc21 (stereo not drawn) [Compound 4.06, 6-N-(2-amino-2-phenylethyl)-4-N-[(3-bromophenyl)methyl]-1-methylpyrazolo[3,4-d]pyrimidine-4,6-diamine]
6.88 | 6.55 | Cn1ncc2c(NCc3ccc(Br)cc3)nc(NCC(N)c3ccccc3)nc21 (stereo not drawn) [Compound 4.07, 6-N-(2-amino-2-phenylethyl)-4-N-[(4-bromophenyl)methyl]-1-methylpyrazolo[3,4-d]pyrimidine-4,6-diamine]
5.97 | 5.53 | Cn1ncc2c(NCc3ccc(C(F)(F)F)nc3)nc(NCC(N)c3ccccc3)nc21 (stereo not drawn) [Compound 4.08, 6-N-(2-amino-2-phenylethyl)-1-methyl-4-N-[[6-(trifluoromethyl)pyridin-3-yl]methyl]pyrazolo[3,4-d]pyrimidine-4,6-diamine]
6.75 | 6.30 | COc1ccc(CNc2nc(NCC(N)c3ccccc3)nc3c2cnn3C)c(OC)c1 (stereo not drawn) [Compound 4.09, N6-(2-amino-2-phenyl-ethyl)-N4-[(2,4-dimethoxyphenyl)methyl]-1-methyl-pyrazolo[3,4-d]pyrimidine-4,6-diamine]
7.14 | 6.49 | Cn1ncc2c(Nc3ccc(F)cc3)nc(NCC(N)c3ccccc3)nc21 (stereo not drawn) [Compound 4.10, 6-N-(2-amino-2-phenylethyl)-4-N-(4-fluorophenyl)-1-methylpyrazolo[3,4-d]pyrimidine-4,6-diamine]
6.77 | 5.67 | Cn1ncc2c(Nc3cnc(C(F)(F)F)nc3)nc(NCC(C)(N)c3ccccc3)nc21 (stereo not drawn) [Compound 4.11, N6-(2-amino-2-phenyl-propyl)-1-methyl-N4-[2-(trifluoromethyl)pyrimidin-5-yl]pyrazolo[3,4-d]pyrimidine-4,6-diamine]
7.28 | 6.73 | Cn1ncc2c(Nc3ccc(OC(F)(F)F)cc3)nc(NCC(C)(N)c3ccccc3)nc21 (stereo not drawn) [Compound 4.12, N6-(2-amino-2-phenyl-propyl)-1-methyl-N4-[4-(trifluoromethoxy)phenyl]pyrazolo[3,4-d]pyrimidine-4,6-diamine]
7.06 | 6.59 | Cn1ncc2c(Nc3ccc(Cl)c(Cl)c3)nc(NCC(C)(N)c3ccccc3)nc21 (stereo not drawn) [Compound 4.13, N6-(2-amino-2-phenyl-propyl)-N4-(3,4-dichlorophenyl)-1-methyl-pyrazolo[3,4-d]pyrimidine-4,6-diamine]
7.05 | 6.69 | Cn1ncc2c(Nc3ccc(OC(F)F)cc3)nc(NCC(N)c3ccccc3)nc21 (stereo not drawn) [Compound 4.14, 6-N-(2-amino-2-phenylethyl)-4-N-[4-(difluoromethoxy)phenyl]-1-methylpyrazolo[3,4-d]pyrimidine-4,6-diamine]
